Molecules are shown by their SMILES. Positions count from the first letter of the chain named. Read-outs that look alike come from different tables or passages of the source.

One test deals with T1, mutant MGL (Homo sapiens, UniProt Q99685, L169S/L176S).
T1 sequence (Q99685 1-303 L169S/L176S): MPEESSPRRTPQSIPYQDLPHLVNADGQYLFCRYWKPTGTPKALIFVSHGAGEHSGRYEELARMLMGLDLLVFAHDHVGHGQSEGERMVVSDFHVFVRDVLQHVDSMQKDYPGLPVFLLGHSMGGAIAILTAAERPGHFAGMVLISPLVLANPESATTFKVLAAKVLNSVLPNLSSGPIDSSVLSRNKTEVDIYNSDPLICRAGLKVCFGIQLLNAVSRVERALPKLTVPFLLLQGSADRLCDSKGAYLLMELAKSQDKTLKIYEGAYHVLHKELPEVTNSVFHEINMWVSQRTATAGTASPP
Briefly: MGL ThermoFluor assay - mutant. Format: binding.

Test [1] has as its target T2, purified wild type MGL (wt-MGLL 6H-11-313) (Homo sapiens, UniProt Q99685).
T2 sequence (Q99685 1-303): T1 sequence (Q99685 1-303 L169S/L176S) with S169L, S176L

Setting [2] is: compound concentration measured by qNMR, read-out: MGL mutant ThermoFluor qKd (using qNMR conc.).
The mark [3] stands for this setting: ThermoFluor, compound concentration measured by qNMR, read-out: MGL mutant ThermoFluor qKd (μM) (using qNMR conc.).
The mark [4] stands for this setting: ThermoFluor, compound concentration measured by qNMR, read-out: MGL mutant ThermoFluor qKd (using qNMR conc.).
[5] abbreviates: ThermoFluor thermal stability binding assay, read-out: MGL mutant ThermoFluor Kd.
[6] abbreviates: ThermoFluor concentration-response, read-out: MGL mutant ThermoFluor Kd.

One may read the IC50 as the point on the concentration scale where inhibition reaches its midpoint. Higher therefore signals weaker potency in that assay. Take `Cn1cc(-c2cccc(F)c2)c2ccc(C(=O)N3CC(N4CCN(C(=O)c5nccs5)CC4)C3)cc21` [Cpd 1142]: at mutant MGL (setting [2]), the Kd amounted to 0.001 µM. For the same molecule, inhibition in test [1] was half-maximal at 29 nM (IC50).
Regarding `O=C(c1ccc2c(ccn2-c2ccc(F)cc2)c1)N1CC(N2CCN(C(=O)c3ccc(Cl)o3)CC2)C1` [Cpd 1425], at mutant MGL (setting [3]), the Kd stood at 0.019 µM. In test [1], the IC50 was determined as 9 nM.
With `O=C(c1cnc2ccc(Cl)cc2c1)N1CC(N2CCN(C(=O)c3nccs3)CC2)C1` [Cpd 797], the Kd at mutant MGL (setting [4]) stood at 0.489 µM. Further, half-maximal inhibition in test [1] (IC50) required 1600 nM.
On to `O=C(c1ccc(-c2cccc(C(F)(F)F)c2)cc1)N1CC(N2CCN(C(=O)c3ccc(Cl)s3)CC2)C1` [Cpd 1143], for which the Kd on mutant MGL (setting [3]) is 0.07 µM. The same molecule came in with a half-inhibitory concentration (IC50) in test [1] of 30 nM.
Turning to `O=C(c1ccc2c(c1)CCN2)N1CC(N2CCN(C(=O)c3nccs3)CC2)C1` [Cpd 829, 5-({3-[4-(1,3-Thiazol-2-ylcarbonyl)piperazin-1-yl]azetidin-1-yl}carbonyl)-2,3-dihydro-1H-indole], the Kd at mutant MGL (setting [5]) came to 0.5 µM. Besides, half-maximal inhibition in test [1] (IC50) was put at 3900 nM.
For `O=C(c1ccc(-n2ccc(C(F)(F)F)n2)cc1)N1CC(N2CCN(C(=O)c3cscn3)CC2)C1` [Cpd 1302], in that order: 2.5 µM and 4950 nM.
With `O=C(c1ccc(S(=O)(=O)c2cccc(C(F)(F)F)c2)cc1)N1CC(N2CCN(C(=O)c3cscn3)CC2)C1` [Cpd 738], the Kd on mutant MGL (setting [6]) was 0.291 µM. This molecule returned an IC50 in test [1] of 289 nM.
For `O=C(c1ccc2c(ccn2Cc2ccncc2)c1)N1CC(N2CCN(C(=O)c3nccs3)CC2)C1` [Cpd 1046], at mutant MGL (setting [2]), the Kd amounted to 0.064 µM. Besides, the midpoint of inhibition in test [1], the IC50, lay at 288 nM.
Take `Cc1cc(C(=O)N2CC(N3CCN(C(=O)c4nccs4)CC3)C2)c(C)n1Cc1ccc(S(N)(=O)=O)cc1` [Cpd 1042]: the Kd at mutant MGL (setting [4]) was found to be 5 µM. In test [1], this molecule registered a concentration for half-maximal inhibition (IC50) of 5270 nM.
`O=C(c1ccc(Oc2ccccn2)cc1)N1CC(N2CCN(C(=O)C(F)(F)F)CC2)C1` [Cpd 869]: the Kd at mutant MGL (setting [2]) was found to be 6.2 µM. The same molecule had an IC50 in test [1] of 12900 nM.
In the case of `Cn1cc(C(=O)N2CC(N3CCN(C(=O)c4nccs4)CC3)C2)c2ccccc21` [Cpd 838], at mutant MGL (setting [6]), the Kd came to 0.978 µM. For the same molecule, 5110 nM corresponded to half-maximal inhibition in test [1] (IC50).
Regarding `O=C(c1cc2cc(-c3ccccc3)cnc2o1)N1CC(N2CCN(C(=O)c3nccs3)CC2)C1` [Cpd 1209], the Kd on mutant MGL (setting [3]) amounted to 0.942 µM. In test [1], this molecule displayed a half-maximal inhibitory concentration (IC50) of 193 nM.
As for `Cc1nc2cc(C(=O)N3CC(N4CCN(C(=O)c5cscn5)CC4)C3)ccc2n1C1CCCCC1` [Cpd 832], the Kd on mutant MGL (setting [5]) is 0.059 µM. Also, half-maximal inhibition in test [1] (IC50) was put at 4240 nM.
On to `O=C(c1ccc(-n2cnc3ccccc32)cc1)N1CCN(C2CN(C(=O)c3cscn3)C2)CC1` [Cpd 1305], for which the Kd on mutant MGL (setting [6]) amounted to 0.833 µM. In test [1], this molecule came in with a 50% inhibitory concentration (IC50) of 6680 nM.
As to `Cc1nn(Cc2ccc(Cl)cc2)c2sc(C(=O)N3CC(N4CCN(C(=O)c5nccs5)CC4)C3)cc12` [Cpd 1053], the Kd on mutant MGL (setting [4]) was found to be 0.247 µM. In test [1], the half-inhibitory concentration (IC50) was determined as 18 nM.
On to `Cc1cc(C(=O)N2CC(N3CCN(C(=O)c4nccs4)CC3)C2)sc1Br` [Cpd 723], for which the Kd on mutant MGL (setting [3]) was determined as 0.292 µM. The same molecule came in with an IC50 in test [1] of 181 nM.
Take `Cc1nn(-c2ccc(Cl)c(Cl)c2)c(C)c1C(=O)N1CC(N2CCN(C(=O)c3nccs3)CC2)C1` [Cpd 1225]: the Kd on mutant MGL (setting [6]) was 0.042 µM. Also, in test [1], the half-inhibitory concentration (IC50) is 273 nM.
For the molecule `O=C(c1cscn1)N1CC(N2CCN(C(=O)c3cc4nc(C(F)(F)F)ccc4[nH]3)CC2)C1` [Cpd 830], the Kd on mutant MGL (setting [4]) came out at 1.96 µM. Moreover, in test [1], 3940 nM corresponded to half-maximal inhibition (IC50).
On to `Cc1nc2cc(C(=O)N3CC(N4CCN(C(=O)c5cscn5)CC4)C3)ccc2n1-c1ccc(F)cc1` [Cpd 1291], for which the Kd on mutant MGL (setting [2]) was 0.179 µM. In test [1], the half-maximal inhibitory concentration (IC50) came to 2780 nM.
Regarding `Cc1cn(-c2ccc(C(=O)N3CC(N4CCN(C(=O)c5nccs5)CC4)C3)cc2)c2ccccc12` [Cpd 1413], on mutant MGL (setting [3]), the Kd was determined as 0.003 µM. This molecule gave an IC50 in test [1] of 15 nM.
For `O=C(c1ccc2c(ccn2-c2ccc(F)cc2)c1)N1CC(N2CCN(C(=O)c3cocn3)CC2)C1` [Cpd 1428], the Kd at mutant MGL (setting [3]) amounted to 0.018 µM. This molecule also registered a concentration for half-maximal inhibition (IC50) in test [1] of 14 nM.
Take `O=C(c1ccc(-c2ccccc2)cc1)N1CCN(C2CN(C(=O)c3cc[nH]c3)C2)CC1` [Cpd 1292, 1-(Biphenyl-4-ylcarbonyl)-4-[1-(1H-pyrrol-3-ylcarbonyl)azetidin-3-yl]piperazine]: the Kd on mutant MGL (setting [6]) came to 0.631 µM. Also, inhibition in test [1] was half-maximal at 3070 nM (IC50).
On to `O=C(c1ccc(Oc2ncc(C(F)(F)F)cc2Cl)cc1)N1CC(N2CCN(C(=O)c3cscn3)CC2)C1` [Cpd 720], for which the Kd on mutant MGL (setting [6]) was 0.347 µM. The concentration for half-maximal inhibition (IC50) in test [1] was found to be 173 nM.
`Cc1nc2c(C)ccc(Cl)c2cc1C(=O)N1CC(N2CCN(C(=O)c3nccs3)CC2)C1` [Cpd 791]: the Kd at mutant MGL (setting [4]) stood at 0.402 µM. In addition, in test [1], half-maximal inhibition (IC50) required 1450 nM.
On to `O=C(c1ccccc1)N1CCN(C2CN(C(=O)c3cc4cc(Cl)ccc4o3)C2)CC1` [Cpd 1491], for which, on mutant MGL (setting [5]), the Kd stood at 12.5 µM. In addition, in test [1], the concentration for half-maximal inhibition (IC50) is > 16700 nM.
As for `O=C(c1cscn1)N1CCN(C2CN(C(=O)c3cn(-c4ccc(F)cc4)c4ccccc34)C2)CC1` [Cpd 1295], the Kd on mutant MGL (setting [3]) was 1.51 µM. In test [1], this molecule registered an IC50 of 3280 nM.
Take `O=C(c1ccc2c(ccn2CC(F)F)c1)N1CC(N2CCN(C(=O)c3cscn3)CC2)C1` [Cpd 813]: on mutant MGL (setting [2]), the Kd came out at 0.499 µM. For the same molecule, the IC50 in test [1] was determined as 2420 nM.
In the case of `O=C(c1nccs1)N1CCN(C2CN(C(=O)c3ncoc3-c3ccc(Cl)cc3)C2)CC1` [Cpd 1473], the Kd at mutant MGL (setting [5]) worked out at 6.67 µM. In addition, the IC50 in test [1] was > 16700 nM.
As for `Cc1c(C(=O)N2CC(N3CCN(C(=O)c4nccs4)CC3)C2)[nH]c2ccc(-c3cccnc3F)cc12` [Cpd 1149, 5-(2-Fluoropyridin-3-yl)-3-methyl-2-({3-[4-(1,3-thiazol-2-ylcarbonyl)piperazin-1-yl]azetidin-1-yl}carbonyl)-1H-indole], the Kd at mutant MGL (setting [3]) worked out at 0.004 µM. This molecule gave an IC50 in test [1] of 35 nM.
With `O=C(c1ccc2c(cnn2-c2cccc(OC(F)(F)F)c2)c1)N1CC(N2CCN(C(=O)c3nccs3)CC2)C1` [Cpd 1374], the Kd on mutant MGL (setting [3]) was determined as 0.007 µM. Also, in test [1], the IC50 is < 5 nM.
As for `Cc1ccc2c(C(F)(F)F)c(C(=O)N3CC(N4CCN(C(=O)c5ccccc5)CC4)C3)sc2c1` [Cpd 510, 1-(1-{[6-Methyl-3-(trifluoromethyl)-1-benzothiophen-2-yl]carbonyl}azetidin-3-yl)-4-(phenylcarbonyl)piperazine], the Kd at mutant MGL (setting [6]) came out at 0.068 µM. The molecule also had a half-maximal inhibitory concentration (IC50) in test [1] of 181 nM.
As to `O=C(c1ccc(-c2nc(-c3ccccc3Cl)cs2)cc1)N1CC(N2CCN(C(=O)c3nccs3)CC2)C1` [Cpd 1328], at mutant MGL (setting [6]), the Kd is 0.002 µM. Further, the IC50 in test [1] is < 5 nM.
For `O=C(c1ccccc1)N1CCN(C2CN(C(=O)c3ccc4c(ccn4-c4ccc(Cl)cn4)c3)C2)CC1` [Cpd 629, 1-(5-Chloropyridin-2-yl)-5-({3-[4-(phenylcarbonyl)piperazin-1-yl]azetidin-1-yl}carbonyl)-1H-indole], in that order: 0.145 µM and 53 nM.
For `O=C(c1cc2ccc(C(F)(F)F)cc2[nH]1)N1CC(N2CCN(C(=O)c3ccns3)CC2)C1` [Cpd 1445], on mutant MGL (setting [5]), the Kd is > 31.2 µM. Moreover, the half-inhibitory concentration (IC50) in test [1] is > 16700 nM.
`NC(=O)c1cc(-n2ccc3cc(C(=O)N4CC(N5CCN(C(=O)c6nccs6)CC5)C4)ccc32)ccc1F` [Cpd 1418, 2-fluoro-5-[5-({3-[4-(1,3-thiazol-2-ylcarbonyl)piperazin-1-yl]azetidin-1-yl}carbonyl)-1H-indol-1-yl]benzamide]: the Kd at mutant MGL (setting [6]) is 0.054 µM. In addition, the concentration for half-maximal inhibition (IC50) in test [1] was 16 nM.
For the molecule `O=C(c1ccc(-c2ccc(C(F)(F)F)cc2)cc1)N1CC(N2CCN(C(=O)c3nccs3)CC2)C1` [Cpd 150, 1-(1,3-Thiazol-2-ylcarbonyl)-4-(1-{[4′-(trifluoromethyl)biphenyl-4-yl]carbonyl}azetidin-3-yl)piperazine], the Kd at mutant MGL (setting [6]) was determined as 0.0033 µM. Also, in test [1], the IC50 is < 5 nM.
As to `O=C(c1nccs1)N1CC(N2CCN(C(=O)c3[nH]c4nc(C(F)(F)F)ccc4c3Br)CC2)C1` [Cpd 746], on mutant MGL (setting [4]), the Kd turned out to be 0.263 µM. The molecule further gave a half-inhibitory concentration (IC50) in test [1] of 373 nM.
In the case of `COc1cc(-n2ccc3cc(C(=O)N4CC(N5CCN(C(=O)c6ccccc6)CC5)C4)ccc32)ccc1C#N` [Cpd 633], on mutant MGL (setting [5]), the Kd is 0.157 µM. Further, the half-maximal inhibitory concentration (IC50) in test [1] turned out to be 62 nM.
For `O=C(c1ccc2nn(Cc3ccc(F)cc3)cc2c1)N1CC(N2CCN(C(=O)c3nccs3)CC2)C1` [Cpd 1030, 2-(4-Fluorobenzyl)-5-({3-[4-(1,3-thiazol-2-ylcarbonyl)piperazin-1-yl]azetidin-1-yl}carbonyl)-2H-indazole], at mutant MGL (setting [2]), the Kd came out at 0.033 µM. Further, the IC50 in test [1] is 13 nM.
For `O=C(c1ccc(Oc2ccc(Cl)cn2)cc1)N1CC(N2CCN(C(=O)c3nccs3)CC2)C1` [Cpd 717], the Kd on mutant MGL (setting [6]) turned out to be 0.067 µM. Moreover, the IC50 in test [1] came out at 147 nM.
`O=C(c1ccc(OCC(F)(F)F)cc1)N1CC(N2CCN(C(=O)c3nccs3)CC2)C1` [Cpd 730]: the Kd at mutant MGL (setting [4]) worked out at 0.146 µM. Besides, half-maximal inhibition in test [1] (IC50) required 238 nM.

These data come from US8362000B2, “Azetidinyl diamides as monoacylglycerol lipase inhibitors” (Janssen Pharmaceutica NV, priority 2009, dated 2013).
